Results as given in patent US20230233576A1, “ECLITASERTIB FOR USE IN TREATING CONDITIONS INVOLVING SYSTEMIC HYPERINFLAMMATORY RESPONSE” (priority 2020, published 2023).

Tests used:
SIRS = assay: acute mouse model of SIRS; type: in vivo
Source text: The RIPK1 Inhibitor was studied in an acute mouse model of SIRS. […] There is also rationale that vascular permeability and endothelial dysfunction contribute to SIRS/shock and lethality. […] Additional clinical evidence for the role of RIPK1 in driving systemic inflammation comes from evidence in a rare population of patients that have a mutation in RIPK1 that blocks caspase-mediated cleavage and leads to hyperactivation of this kinase. These patients have periodic fevers with coinciding elevations of cytokines including IL-6 and elevated levels of pRIPK1 in their PBMCs. Patient-derived cells are responsive to RIPK1 kinase inhibition, and some patients are responsive to anti-IL-6 therapy.

[1] = non-human primate toxicology studies; type: in vivo; details: up to 29 days and up to 500 mg/kg/day
[2] = system: adult participants hospitalized for severe COVID-19; assay: Phase 1b severe COVID-19 study: 7-point clinical scale; type: in vivo, human; details: 600 mg
Source text: (§1) Exploratory clinical assessments endpoints included: • Change from baseline in ferritin and LDH at Day 7 and EOT • Proportion of participants per category of the 7-point clinical scale at EOT • Time to improvement by 2 points in category of 7-point clinical scale • Quantitative SARS-COV-2 viral load in blood at baseline and on Day 3, 5, 7 and EOT
The 7-point clinical scale is described below: • 1. Death • 2. Hospitalized, on invasive mechanical ventilation or ECMO • 3. Hospitalized, on non-invasive ventilation or high flow oxygen devices • 4. Hospitalized, requiring supplemental oxygen • 5. Hospitalized, not requiring supplemental oxygen—requiring ongoing medical care (COVID-19 related or otherwise) • 6. Hospitalized, not requiring supplemental oxygen—no longer requires ongoing medical care • 7. Not hospitalized

[3] = system: peripheral cytokine and biomarker levels; assay: Phase 1b severe COVID-19 study: peripheral cytokine and biomarker levels; type: in vivo, human
Source text: The biomarker variables included pro-inflammatory cytokines (such as IL 4, IL-6, IL-10, IL-17, TNFα, and IFNγ) and RIPK1 PD cytokines/chemokines (such as MIP1α and MIP1β) that are elevated in participants with SARS-CoV-2.
The exploratory PD/biomarker endpoint was the change from baseline in peripheral cytokine and biomarker levels up to EOT.
Each analyte was selected, and the assay analytically validated based on reports in the literature and in-house research.

[4] = system: SARS-COV-2 viral load in blood; assay: Phase 1b severe COVID-19 study: quantitative SARS-COV-2 viral load in blood; details: for Viral load in plasma: <1660 CP/ML SARS-COV2, number of participants / Viral load in plasma: <1660 CP/ML SARS-COV2, share of participants (in parentheses) / Viral load in plasma: INCONCLUSIVE, number of participants / Viral load in plasma: INCONCLUSIVE, share of participants (in parentheses) / Viral load in plasma: NO SARS-COV2 DETECTED, number of participants / Viral load in plasma: NO SARS-COV2 DETECTED, share of participants (in parentheses) / Viral load in plasma: POSITIVE RESULT, number of participants / Viral load in plasma: POSITIVE RESULT, share of participants (in parentheses): 600 mg (N = 41); for Viral load in plasma: Positive result, Mean / Viral load in plasma: Positive result, Median: 600 mg, participants with positive result
Source text: The clinical assessment in this study included both the assessment of clinical laboratory variables (CRP, laboratory markers of severe COVID-19 [D-Dimer, hematology parameters and thrombolytic therapy and vasopressor treatment]), oxygenation variables (saturated oxygen [SpO2], SpO2/fraction of inspired oxygen [FiO2] ratio), and clinical status variables (7-point clinical scale). The pharmacodynamic assessment included the measurement of peripheral biomarkers (pro-inflammatory cytokines and RIPK1 PD cytokines/chemokines), and optional measurement of viral load of SARS-CoV-2.
as §1
Summary of quantitative measurement of SARS-COV-2 plasma viral load over time (at baseline, Day 3, 5, 7, and EOT) is provided in Table 28. An overall trend of decrease viral load and increased number of negative SARS-COV-2 tests were observed over time. Due to a high variability in the viral load values, no interpretation could be drawn for the effect of treatment on the viral load.

[5] = EOT, Efficacy population (N = 41)
[6] = 600 mg, Day 7, LOCF, Safety population
[7] = 600 mg, Day 7, not statistically significant
[8] = Day 7 vs baseline, LOCF, Safety population

Structure (SMILES): CN1C(=O)[C@@H](NC(=O)c2nnc(Cc3ccccc3)[nH]2)COc2cccnc21 [RIPK1 Inhibitor, (S)-5-benzyl-N-(5-methyl-4-oxo-2,3,4,5-tetrahydropyrido[3,2-b][1,4]oxazepin-3-yl)-4H-1,2,4-triazole-3-carboxamide]
- SIRS induction (SIRS): dose-dependently blocked and at the highest dose completely abolished
- safety concerns in toxicology studies [1]: did not raise any safety concerns
- 7-point clinical scale category 3, participants [2, 5]: 0 n
- 7-point clinical scale category 5, participants [2, 5]: 0 n
- 7-point clinical scale category 6, participants [2, 5]: 0 n
- median time to improvement by at least 2 points in the category of 7-point scale ([2]; Kaplan-Meier, Efficacy population): 8 days
- participants with a 7-point clinical scale score of 5 or lower ([2]; end of study treatment period or early discontinuation): 15%
- IL-6 fold change from baseline [3, 6]: 0.4
- IL-10 fold change from baseline [3, 6]: 0.48
- chemokine (C-X-C motif) Ligand 10 fold change from baseline [3, 6]: 0.26
- interferon gamma fold change from baseline [3, 6]: 0.44
- IL-6, ratio of relatives changes (RIPK1 Inhibitor versus placebo) [3, 7]: 0.63
- IL-10, ratio of relatives changes (RIPK1 Inhibitor versus placebo) [3, 7]: 0.82
- chemokine (C-X-C Motif) Ligand 10, ratio of relatives changes (RIPK1 Inhibitor versus placebo) [3, 7]: 0.7
- monocyte chemotactic protein 1, ratio of fold changes between RIPK1 Inhibitor and placebo [3, 7]: 0.85
- Chemokine (C-C Motif) Ligand 13 (pg/mL): RIPK1 Inhibitor 600 mg vs Placebo Fold-Change ([3]; Day 7, LOCF, Safety population): 1.15 (60)
- Chemokine (C-X-C Motif) Ligand 10 (pg/mL): RIPK1 Inhibitor 600 mg vs Placebo Fold-Change ([3]; Day 7, LOCF, Safety population): 0.7 (56)
- Eotaxin-1 (pg/mL): RIPK1 Inhibitor 600 mg vs Placebo Fold-Change ([3]; Day 7, LOCF, Safety population): 1.03 (65)
- Interferon Gamma (pg/mL): RIPK1 Inhibitor 600 mg vs Placebo Fold-Change ([3]; Day 7, LOCF, Safety population): 1.03 (66)
- Interleukin 6 (pg/mL): RIPK1 Inhibitor 600 mg vs Placebo Fold-Change ([3]; Day 7, LOCF, Safety population): 0.63 (66)
- Interleukin 8 - Cytokines (pg/mL): RIPK1 Inhibitor 600 mg vs Placebo Fold-Change ([3]; Day 7, LOCF, Safety population): 0.8 (66)
- Interleukin 10 (pg/mL): RIPK1 Inhibitor 600 mg vs Placebo Fold-Change ([3]; Day 7, LOCF, Safety population): 0.82 (66)
- Macrophage Inflammatory Protein 1 Beta (pg/mL): RIPK1 Inhibitor 600 mg vs Placebo Fold-Change ([3]; Day 7, LOCF, Safety population): 0.85 (60)
- Macrophage-Derived Chemokine (pg/mL): RIPK1 Inhibitor 600 mg vs Placebo Fold-Change ([3]; Day 7, LOCF, Safety population): 1.2 (60)
- Monocyte Chemotactic Protein 1 (pg/mL): RIPK1 Inhibitor 600 mg vs Placebo Fold-Change ([3]; Day 7, LOCF, Safety population): 0.85 (60)
- Ratio of Interleukin 6 and Interleukin 10 (RATIO): RIPK1 Inhibitor 600 mg vs Placebo Fold-Change ([3]; Day 7, LOCF, Safety population): 0.86 (66)
- Tumor Necrosis Factor alpha (pg/mL): RIPK1 Inhibitor 600 mg vs Placebo Fold-Change ([3]; Day 7, LOCF, Safety population): 0.98 (66)
- okine (C-C Motif) Ligand 17: RIPK1 Inhibitor 600 mg vs Placebo Fold-Change ([3]; Day 7, LOCF, Safety population): 1 (60)
- Chemokine (C-C Motif) Ligand 13 (pg/mL): RIPK1 Inhibitor 600 mg Fold-Change [3, 8]: 1.31 (41)
- Chemokine (C-X-C Motif) Ligand 10 (pg/mL): RIPK1 Inhibitor 600 mg Fold-Change [3, 8]: 0.26 (37)
- Eotaxin-1 (pg/mL): RIPK1 Inhibitor 600 mg Fold-Change [3, 8]: 1.21 (45)
- Interferon Gamma (pg/mL): RIPK1 Inhibitor 600 mg Fold-Change [3, 8]: 0.44 (47)
- Interleukin 6 (pg/mL): RIPK1 Inhibitor 600 mg Fold-Change [3, 8]: 0.4 (47)
- Interleukin 8 - Cytokines (pg/mL): RIPK1 Inhibitor 600 mg Fold-Change [3, 8]: 0.71 (47)
- Interleukin 10 (pg/mL): RIPK1 Inhibitor 600 mg Fold-Change [3, 8]: 0.48 (47)
- Macrophage Inflammatory Protein 1 Beta (pg/mL): RIPK1 Inhibitor 600 mg Fold-Change [3, 8]: 1.07 (41)
- Macrophage-Derived Chemokine (pg/mL): RIPK1 Inhibitor 600 mg Fold-Change [3, 8]: 1.05 (41)
- Monocyte Chemotactic Protein 1 (pg/mL): RIPK1 Inhibitor 600 mg Fold-Change [3, 8]: 0.69 (41)
- Ratio of Interleukin 6 and Interleukin 10 (RATIO): RIPK1 Inhibitor 600 mg Fold-Change [3, 8]: 0.87 (47)
- Tumor Necrosis Factor alpha (pg/mL): RIPK1 Inhibitor 600 mg Fold-Change [3, 8]: 0.85 (47)
- okine (C-C Motif) Ligand 17: RIPK1 Inhibitor 600 mg Fold-Change [3, 8]: 1.56 (41)
- Viral load in plasma: <1660 CP/ML SARS-COV2, number of participants ([4]; DAY 01 (baseline, predose)): 14
- Viral load in plasma: <1660 CP/ML SARS-COV2, share of participants (in parentheses) ([4]; DAY 01 (baseline, predose)): (34.1)
- Viral load in plasma: INCONCLUSIVE, number of participants ([4]; DAY 01 (baseline, predose)): 1
- Viral load in plasma: INCONCLUSIVE, share of participants (in parentheses) ([4]; DAY 01 (baseline, predose)): (2.4)
- Viral load in plasma: NO SARS-COV2 DETECTED, number of participants ([4]; DAY 01 (baseline, predose)): 11
- Viral load in plasma: NO SARS-COV2 DETECTED, share of participants (in parentheses) ([4]; DAY 01 (baseline, predose)): (26.8)
- Viral load in plasma: POSITIVE RESULT, number of participants ([4]; DAY 01 (baseline, predose)): 7
- Viral load in plasma: POSITIVE RESULT, share of participants (in parentheses) ([4]; DAY 01 (baseline, predose)): (17.1)
- Viral load in plasma: <1660 CP/ML SARS-COV2, number of participants ([4]; DAY 03): 12
- Viral load in plasma: <1660 CP/ML SARS-COV2, share of participants (in parentheses) ([4]; DAY 03): (29.3)
- Viral load in plasma: INCONCLUSIVE, number of participants ([4]; DAY 03): 2
- Viral load in plasma: INCONCLUSIVE, share of participants (in parentheses) ([4]; DAY 03): (4.9)
- Viral load in plasma: NO SARS-COV2 DETECTED, number of participants ([4]; DAY 03): 16
- Viral load in plasma: NO SARS-COV2 DETECTED, share of participants (in parentheses) ([4]; DAY 03): (39.0)
- Viral load in plasma: POSITIVE RESULT, number of participants ([4]; DAY 03): 4
- Viral load in plasma: POSITIVE RESULT, share of participants (in parentheses) ([4]; DAY 03): (9.8)
- Viral load in plasma: <1660 CP/ML SARS-COV2, number of participants ([4]; DAY 07): 1
- Viral load in plasma: <1660 CP/ML SARS-COV2, share of participants (in parentheses) ([4]; DAY 07): (2.4)
- Viral load in plasma: INCONCLUSIVE, number of participants ([4]; DAY 07): 2
- Viral load in plasma: INCONCLUSIVE, share of participants (in parentheses) ([4]; DAY 07): (4.9)
- Viral load in plasma: NO SARS-COV2 DETECTED, number of participants ([4]; DAY 07): 12
- Viral load in plasma: NO SARS-COV2 DETECTED, share of participants (in parentheses) ([4]; DAY 07): (29.3)
- Viral load in plasma: POSITIVE RESULT, number of participants ([4]; DAY 07): 1
- Viral load in plasma: POSITIVE RESULT, share of participants (in parentheses) ([4]; DAY 07): (2.4)
- Viral load in plasma: <1660 CP/ML SARS-COV2, number of participants ([4]; EOT): 4
- Viral load in plasma: <1660 CP/ML SARS-COV2, share of participants (in parentheses) ([4]; EOT): (9.8)
- Viral load in plasma: INCONCLUSIVE, number of participants ([4]; EOT): 1
- Viral load in plasma: INCONCLUSIVE, share of participants (in parentheses) ([4]; EOT): (2.4)
- Viral load in plasma: NO SARS-COV2 DETECTED, number of participants ([4]; EOT): 28
- Viral load in plasma: NO SARS-COV2 DETECTED, share of participants (in parentheses) ([4]; EOT): (68.3)
- Viral load in plasma: POSITIVE RESULT, number of participants ([4]; EOT): 0
- Viral load in plasma: Positive result, Mean ([4]; DAY 01 (baseline, predose)): 30217.6 copies/mL
- Viral load in plasma: Positive result, Median ([4]; DAY 01 (baseline, predose)): 7560.0 copies/mL
- Viral load in plasma: Positive result, Mean ([4]; DAY 03): 7505.0 copies/mL
- Viral load in plasma: Positive result, Median ([4]; DAY 03): 6332.5 copies/mL
- Viral load in plasma: Positive result, Mean ([4]; DAY 07): 6240.0 copies/mL
- Viral load in plasma: Positive result, Median ([4]; DAY 07): 6240.0 copies/mL
